Assay results published in US20260207722A1, “COMBINATION FOR TREATMENT OF AUTOIMMUNE DISEASES” (Bonsai Biotherapeutics AB, priority 2023, published 2026).

Tested on: experimental autoimmune myasthenia gravis (EAMG)
Assay: EAMG clinical score, rats treated with TOL2 and/or diclofenac (Example 2)
Format: in vivo, rat
Conditions: treatment 40 days after EAMG induction; diclofenac 10 mg/kg ip; TOL2 500 μg iv alone, 250 μg iv in the combination; vs PBS-treated controls; FIG. 3A

## O=C(O)Cc1ccccc1Nc1c(Cl)cccc1Cl [diclofenac]
  EAMG score: did not show any improvement
